# Test results: PubChem BioAssay (NCI)
# Where “and” joins values, the source holds several entries; their conditions need not be identical. Identical values can stand only once.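 Grown in 96-well plates, cells were treated for 48 hours with each compound at five concentrations. Insufficient inhibition: endpoint recorded as highest concentration tested. The concentration for 50% growth inhibition is given as GI50. At the TGI there is no net growth.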
# Assays:
# Assay in all cases: NCI-60 cell line screen, 48 h
# KM12 colon = tested on: KM12 colon
# LOX IMVI melanoma = tested on: LOX IMVI melanoma
# LXFL 529 NSCLC = tested on: LXFL 529 NSCLC
# NCI-H226 lung = tested on: NCI-H226 lung
# OVCAR-8 ovarian = tested on: OVCAR-8 ovarian
# RXF 393 renal = tested on: RXF 393 renal
# SK-MEL-5 melanoma = tested on: SK-MEL-5 melanoma
# U251 CNS = tested on: U251 CNS
# MCF7 breast = tested on: MCF7 breast
# PC-3 prostate = tested on: PC-3 prostate
SMILES,TGI (KM12 colon) [µM],TGI (LOX IMVI melanoma) [µM],TGI (LXFL 529 NSCLC) [µM],TGI (NCI-H226 lung) [µM],TGI (OVCAR-8 ovarian) [µM],TGI (RXF 393 renal),TGI (SK-MEL-5 melanoma) [µM],TGI (U251 CNS) [µM],GI50 (LXFL 529 NSCLC) [µM],GI50 (RXF 393 renal) [µM],TGI (MCF7 breast),TGI (PC-3 prostate) [µM],GI50 (LOX IMVI melanoma) [µM],GI50 (NCI-H226 lung) [µM],GI50 (OVCAR-8 ovarian) [µM],GI50 (PC-3 prostate) [µM],GI50 (U251 CNS) [µM]
O=C(c1ccccc1)[C@H]1Nc2cnccc2C2c3ccccc3CC21 (stereo partly specified),> 61.3,3.55,19.7,20.2,33.9,50.4 µM,10.1,48.8,–,–,–,–,–,–,–,–,–
C=C1CC2C(=O)N(c3ccccc3)C(=O)C2CC1n1[nH]c(=O)n(Cc2ccccc2)c1=O (stereo unspecified),> 100,> 100,> 100,> 100,> 100,> 100 µM,> 100,> 100,–,–,–,–,–,–,–,–,–
COC(=O)C(=O)C(C(=O)C(=O)Nc1cc([N+](=O)[O-])ccc1C#N)c1nc2ccccc2[nH]c1=O (stereo unspecified),> 100,> 100,> 100,> 100,> 100,> 100 µM,> 100,–,–,–,–,–,–,–,–,–,–
CC1(C)OC(=O)C=C([O-])O1.CC1(C)OC(=O)C=C([O-])O1.O=c1c(O)c(-c2ccc([O-])cc2[O-])oc2cc(O)cc(O)c12.[Ti+4],> 100,> 100,> 100,> 100,> 100,93.3 µM,> 100,–,> 100,36.7,–,–,–,–,–,–,–
O=c1cc(-c2ccccc2F)[nH]c2cc3c(cc12)OCO3,17.1,> 78.8,16.5,1.81,–,> 100 µM,4.41,22.5,–,–,> 50.9 µM,> 100,–,–,–,–,–
N#CC(C#N)=Cc1cccc(Oc2ccccc2)c1,53.2,43.6,41,> 69.1,> 31.6,33.4 µM,36.6,18.9,–,–,–,–,–,–,–,–,–
COc1ccc(/C=C/C(=O)c2sc(-n3nc(-c4ccccc4)cc3-c3ccccc3)nc2C)cc1OC,> 100,96.6,> 100,> 100,> 100,> 100 µM,–,> 100,–,–,–,–,–,–,–,–,–
Brc1ccc2c(c1)-c1nc3c(cc1CC2)CCc1ccc(Br)cc1-3,> 100,> 100,–,> 100,> 100,> 100 µM,> 100,> 100,–,–,> 100 µM,> 100,–,–,–,–,–
CCOC(=O)Cc1nn2c(=O)cc(C)nc2s1,> 100,> 100,–,> 100,> 100,> 100 µM,> 100,> 100,–,–,> 100 µM,> 100,–,–,–,–,–
CC/C=C\C/C=C\C/C=C\CCCCCCCC(=O)OC(COC(=O)CCCCCCCCCCCCCCCCC)COC1OC(CO)C(O)C(O)C1O (stereo unspecified),> 25,> 25,–,> 25,> 25,> 25 µM,> 25,> 25,–,–,> 25 µM,> 25,–,–,–,–,–
COn1cc(CO)c2ccccc21,> 100,> 100,–,6.35,> 100,47.8 µM,> 100,> 100,–,–,> 100 µM,> 100,–,–,–,–,–
Cc1ccc([N+](=O)[O-])c2c(NCCCN(C)C)ccnc12,> 100,> 100,–,> 100,> 100,> 100 µM,72.8,> 100,–,–,> 100 µM,> 100,–,–,–,–,–
CCOC(=O)/C(=C/c1ccco1)P(=O)(OCC)OCC,> 100,> 100,> 100,> 100,> 100,–,> 100,> 100,–,–,–,–,–,–,–,–,–
NC(CCSCC(F)F)C(=O)O (stereo unspecified),> 100,> 100,> 100,> 100,> 100,> 100 µM,> 100,> 100,–,–,–,–,–,–,–,–,–
CC(C)Cc1c(C#N)c(C#N)c(N)n1Cc1ccccc1,> 100,> 100,–,> 100,> 100,> 100 µM,> 100,> 100,–,–,> 100 µM,> 100,–,–,–,–,–
NNC(=O)c1cccc2c1Oc1ccccc1S2,> 100,> 100,–,> 100,> 100,> 100 µM,> 100,> 100,–,–,> 100 µM,> 100,–,–,–,–,–
C=C1CC=CC(C)(C)C1C/C=C(\C)C(O)CBr (stereo unspecified),> 100,53.5,–,> 100,> 100,> 100 µM,> 100,> 100,–,–,> 100 µM,> 100,–,–,–,–,–

SMILES,TGI (KM12 colon) [µM],TGI (LOX IMVI melanoma) [µM],TGI (LXFL 529 NSCLC) [µM],TGI (NCI-H226 lung) [µM],TGI (OVCAR-8 ovarian) [µM],TGI (RXF 393 renal),TGI (SK-MEL-5 melanoma) [µM],TGI (U251 CNS) [µM],GI50 (LXFL 529 NSCLC) [µM],GI50 (RXF 393 renal) [µM],TGI (MCF7 breast),TGI (PC-3 prostate) [µM],GI50 (LOX IMVI melanoma) [µM],GI50 (NCI-H226 lung) [µM],GI50 (OVCAR-8 ovarian) [µM],GI50 (PC-3 prostate) [µM],GI50 (U251 CNS) [µM]
CC[P+](C#Cc1ccccc1)(c1ccccc1)c1ccccc1,3.29,4.19,–,8.69,6.2,4.39 µM,2.84,4.48,–,–,10.8 µM,6.53,–,–,–,–,–
COc1ccc(/C=N/Nc2nc3ccccc3c(=O)n2-c2ccccc2)c(OCc2ccccc2)c1,> 100,> 100,–,> 100,> 100,> 100 µM,> 100,> 100,–,–,> 100 µM,> 100,–,–,–,–,–
OCC1OC(O[C@H]2CN3[C@H](O)[C@@H](O)[C@H](O)[C@H]3C2O)C(O)C(O)C1O (stereo partly specified),> 100,> 100,–,> 100,> 100,> 100 µM,> 100,> 100,–,–,> 100 µM,> 100,–,–,–,–,–
NC(=O)NC(=NCc1ccccc1)NCc1ccccc1,> 100,> 100,> 100,–,> 100,–,> 100,> 100,–,–,–,–,–,–,–,–,–
CCOC1NC(=O)c2ccccc21 (stereo unspecified),> 100,> 100,–,> 100,> 100,> 100 µM,> 100,> 100,–,–,> 100 µM,> 100,–,–,–,–,–
COC(=O)/C(=N\NC(=S)NN)C(C(=O)C(=O)Nc1ccccc1C(N)=O)c1nc2ccccc2[nH]c1=O (stereo unspecified),> 100,–,> 100,> 100,> 100,> 100 µM,> 100,> 100,–,–,–,–,–,–,–,–,–
O=C(NCCCNCCCCNCCCNC(=O)C(F)(F)F)C(F)(F)F,> 100,> 100,–,> 100,> 100,> 100 µM,> 100,> 100,–,–,> 100 µM,> 100,–,–,–,–,–
C[C@@H]1C(=O)CC2(O)[C@@]13C[C@@H](OC(=O)[C@@H]3O)[C@@H](C)[C@@]21COC1=O (stereo partly specified),> 100,> 100,–,> 100,> 100,> 100 µM,> 100,> 100,–,–,> 100 µM,> 100,–,–,–,–,–
Nc1n[nH]c2ccccc12,> 100,> 100,–,> 100,> 100,> 100 µM,> 100,> 100,–,–,> 100 µM,> 100,–,–,–,–,–
COC(=O)C1=C(C(=O)OC)C2(C)CCC(=O)C1O2 (stereo unspecified),> 10,> 10,–,> 10,> 10,> 10 µM,> 10,> 10,–,–,> 10 µM,> 10,–,–,–,–,–
O=C(/C=C1\C[C@H]2C=Nc3ccccc3C(=O)N2C1)NCCCCCNC(=O)/C=C1\C[C@H]2C=Nc3ccccc3C(=O)N2C1,41,4.47,–,> 70.4,7.31,11.6 µM,> 51,9.05,–,–,33.6 µM,27.1,–,–,–,–,–
CCOC(=O)C(NC(=O)c1ccc(N=NN(C)C)cc1)C(C)C (stereo unspecified),> 100,> 100,> 100,> 100,> 100,–,> 100,> 100,–,–,–,–,–,–,–,–,–
O=[N+]([O-])c1ccc2nc3c(nc2c1)-c1c2ccccc2cc2cccc-3c12,> 100,> 23.6,–,> 100,> 30.6,63.6 µM,> 100,> 66,–,–,> 100 µM,> 66.6,–,–,–,–,–
COc1cc2nc(-c3c(F)cccc3F)n(Cc3c(F)cccc3F)c2cc1Cc1c(F)cccc1F,> 100,> 100,–,> 100,> 100,> 28.9 µM,> 100,> 100,–,–,> 63.9 µM,> 100,–,–,–,–,–
Clc1cccc(C2ON=C(c3ccccc3)N2C23CC4CC(CC(C4)C2)C3)c1Cl (stereo unspecified),> 10,> 10,–,> 10,> 10,> 10 µM,> 10,> 10,–,–,> 10 µM,> 10,–,–,–,–,–
COCC(=O)OC1CCn2c1nc1c2C(=O)C(C)=C(NC(C)=O)C1=O (stereo unspecified),30.5,13.2,11.5,23.5,12,5.9 µM and 7.55 µM,26.8,17.4,–,–,3.53 µM and 3.75 µM,7.68,2.81,9.33,2.92,3.56,4.36
